Measurements reported in the NIST ThermoML archive (doi:10.1021/acs.jced.7b00106).

Settings: Hot wire method

FC(F)(F)/C=C/Cl [(E)-1-chloro-3,3,3-trifluoroprop-1-ene]
Settings	thermal conductivity [W/m/K]
323.1 K, 34268 kPa, Liquid	0.09193
323.1 K, 66598 kPa, Liquid	0.1029
323.11 K, 123 kPa, Gas	0.01239
323.13 K, 141 kPa, Gas	0.01226
323.13 K, 436 kPa, Liquid	0.07562
323.13 K, 34301 kPa, Liquid	0.09204
323.15 K, 9819 kPa, Liquid	0.08053
323.15 K, 56133 kPa, Liquid	0.09946
323.17 K, 162 kPa, Gas	0.01242
323.18 K, 25073 kPa, Liquid	0.08808
323.2 K, 191 kPa, Gas	0.01256
323.22 K, 5184 kPa, Liquid	0.07808
323.24 K, 99 kPa, Gas	0.01215
323.24 K, 43827 kPa, Liquid	0.09508
323.25 K, 99 kPa, Gas	0.01276
323.25 K, 164 kPa, Gas	0.01258
323.26 K, 123 kPa, Gas	0.01268
323.26 K, 43810 kPa, Liquid	0.0946
323.3 K, 34263 kPa, Liquid	0.09159
323.32 K, 34298 kPa, Liquid	0.09169
323.33 K, 446 kPa, Liquid	0.07514
323.39 K, 25067 kPa, Liquid	0.08782
323.41 K, 123 kPa, Gas	0.01233
323.45 K, 161 kPa, Gas	0.01242
323.47 K, 142 kPa, Gas	0.0127
323.52 K, 66583 kPa, Liquid	0.1032
323.54 K, 259 kPa, Gas	0.01261
323.54 K, 66602 kPa, Liquid	0.103
323.57 K, 16961 kPa, Liquid	0.08443
323.6 K, 56150 kPa, Liquid	0.09972
323.64 K, 165 kPa, Gas	0.01259
323.64 K, 189 kPa, Gas	0.01262
323.65 K, 123 kPa, Gas	0.01276
323.66 K, 9815 kPa, Liquid	0.08057
323.69 K, 99 kPa, Gas	0.01287
323.72 K, 123 kPa, Gas	0.01229
323.73 K, 66589 kPa, Liquid	0.103
323.75 K, 66615 kPa, Liquid	0.1027
323.76 K, 5178 kPa, Liquid	0.07818
323.77 K, 160 kPa, Gas	0.01238
323.77 K, 16953 kPa, Liquid	0.08413
323.81 K, 56140 kPa, Liquid	0.09958
323.87 K, 438 kPa, Liquid	0.07537
323.88 K, 9798 kPa, Liquid	0.08054
323.92 K, 142 kPa, Gas	0.01276
323.98 K, 5181 kPa, Liquid	0.07788
323.99 K, 260 kPa, Gas	0.01261
324.07 K, 165 kPa, Gas	0.01273
324.09 K, 123 kPa, Gas	0.0128
324.11 K, 428 kPa, Liquid	0.07518
324.12 K, 188 kPa, Gas	0.01262
324.17 K, 99 kPa, Gas	0.01287
324.41 K, 142 kPa, Gas	0.01275
324.45 K, 260 kPa, Gas	0.01268
324.52 K, 165 kPa, Gas	0.01271
324.55 K, 123 kPa, Gas	0.01276
324.61 K, 187 kPa, Gas	0.01271
324.68 K, 99 kPa, Gas	0.0129
324.93 K, 141 kPa, Gas	0.01279
324.96 K, 260 kPa, Gas	0.01269
324.99 K, 163 kPa, Gas	0.01274
325.04 K, 123 kPa, Gas	0.01286
325.13 K, 186 kPa, Gas	0.01278
325.22 K, 99 kPa, Gas	0.01286
325.47 K, 141 kPa, Gas	0.01283
325.5 K, 161 kPa, Gas	0.01276
325.56 K, 123 kPa, Gas	0.01283
325.79 K, 99 kPa, Gas	0.01295
326.04 K, 160 kPa, Gas	0.01284
326.1 K, 123 kPa, Gas	0.01295
331.18 K, 333 kPa, Gas	0.01373
331.42 K, 333 kPa, Gas	0.01368
331.5 K, 333 kPa, Gas	0.01298
331.53 K, 115 kPa, Gas	0.01325
331.54 K, 333 kPa, Gas	0.01297
331.58 K, 329 kPa, Gas	0.01333
331.68 K, 333 kPa, Gas	0.01367
331.75 K, 257 kPa, Gas	0.01341
331.8 K, 182 kPa, Gas	0.01323
331.82 K, 332 kPa, Gas	0.01319
331.83 K, 113 kPa, Gas	0.01306
331.85 K, 115 kPa, Gas	0.01325
331.86 K, 333 kPa, Gas	0.01297
331.89 K, 328 kPa, Gas	0.01301
331.9 K, 328 kPa, Gas	0.01382
331.94 K, 333 kPa, Gas	0.01367
331.97 K, 263 kPa, Gas	0.01309
332 K, 256 kPa, Gas	0.01333
332.04 K, 97 kPa, Gas	0.01346
332.06 K, 181 kPa, Gas	0.01314
332.08 K, 113 kPa, Gas	0.01302
332.08 K, 186 kPa, Gas	0.01344
332.12 K, 331 kPa, Gas	0.01303
332.14 K, 328 kPa, Gas	0.01379
332.18 K, 114 kPa, Gas	0.01353
332.2 K, 328 kPa, Gas	0.01299
332.25 K, 255 kPa, Gas	0.01328
332.28 K, 333 kPa, Gas	0.013
332.3 K, 262 kPa, Gas	0.01306
332.33 K, 180 kPa, Gas	0.01309
332.36 K, 113 kPa, Gas	0.01297
332.37 K, 97 kPa, Gas	0.01361
332.4 K, 328 kPa, Gas	0.01373
332.42 K, 185 kPa, Gas	0.01339
332.52 K, 253 kPa, Gas	0.01329
332.54 K, 113 kPa, Gas	0.01346
332.56 K, 97 kPa, Gas	0.01298
332.56 K, 328 kPa, Gas	0.01325
332.63 K, 178 kPa, Gas	0.01301
332.63 K, 333 kPa, Gas	0.01323
332.64 K, 112 kPa, Gas	0.01294
332.66 K, 260 kPa, Gas	0.01314
332.67 K, 328 kPa, Gas	0.01373
332.71 K, 98 kPa, Gas	0.01354
332.81 K, 183 kPa, Gas	0.0135
332.81 K, 252 kPa, Gas	0.01326
332.84 K, 97 kPa, Gas	0.01292
332.93 K, 177 kPa, Gas	0.01297
332.95 K, 113 kPa, Gas	0.01357
332.95 K, 328 kPa, Gas	0.0132
332.96 K, 113 kPa, Gas	0.01287
333.06 K, 258 kPa, Gas	0.01325
333.08 K, 97 kPa, Gas	0.01356
333.08 K, 333 kPa, Gas	0.01308
333.14 K, 97 kPa, Gas	0.01284
333.22 K, 183 kPa, Gas	0.01328
333.25 K, 176 kPa, Gas	0.01293
333.35 K, 328 kPa, Gas	0.0133
333.38 K, 113 kPa, Gas	0.01357
333.44 K, 97 kPa, Gas	0.01284
333.49 K, 257 kPa, Gas	0.01337
333.5 K, 97 kPa, Gas	0.01356
333.54 K, 333 kPa, Gas	0.01313
333.58 K, 176 kPa, Gas	0.01292
333.66 K, 182 kPa, Gas	0.01345
333.78 K, 328 kPa, Gas	0.01326
333.82 K, 113 kPa, Gas	0.0136
333.93 K, 255 kPa, Gas	0.01332
333.94 K, 97 kPa, Gas	0.01368
334.01 K, 333 kPa, Gas	0.01329
334.14 K, 180 kPa, Gas	0.01351
334.25 K, 328 kPa, Gas	0.01327
334.31 K, 112 kPa, Gas	0.01357
334.41 K, 97 kPa, Gas	0.01363
334.42 K, 254 kPa, Gas	0.0134
